Test results: patent US20190234926A1, “METHOD OF PREDICTING FLAVOR PERFORMANCE” (McCormick & Company, Incorporated, priority 2016, published 2019)

Experiment: Polarity measured as dielectric constant with a dielectric constant meter
Format: physicochemical
Conditions: at 20° C., general statement
Text: Polar solvents such as water heat up in a microwave much faster than non-polar oils. Flavors heat up somewhere in between depending on their polarity. Dipolar moment of molecules of various liquids is different and can be a measure of polarity of liquids. The dipolar moment is responsible for interaction of molecules in a liquid with the electromagnetic field of a microwave oven. One measure of dipolar moment is dielectric constant. Thus, dielectric constant is a sound measure of flavor polarity and can predict flavor properties and flavor-matrix interaction whether during processing or in final target applications. An example of one commercially available dielectric constant meter useful with the method described herein is a model BI-870 from Brookhaven Instruments. It can measure dielectric constant not only at 20° C. but in a broad temperature range.
In support of development of flavors, encapsulation technologies, and applications, dielectric constant of key solvents used in flavor formulation (Table 1) were measured and a variety of target flavors (Table 2). […] Dielectric constants of binary blends of components fall in the range between the dielectric constants of individual components.

Compound | Dielectric constant
O [Water deionized, Water] | about 80

Same assay, conditions: flavor components and compounded flavors incl. listed solvent, at about 20° C.

Dielectric constant | Compound
4.4 | CC(=O)C(C)=O [Diacetyl]

Same assay, conditions: solvents, at about 20° C.

Dielectric constant | Compound
13.8 | OCc1ccccc1 [Benzyl alcohol]
28.3 | CCO [Ethanol (95%), Ethanol]
46.1 | OCC(O)CO [Glycerin]
20.8 | CC(C)O [Isopropanol]
28.7 | CC(O)CO (stereo not drawn) [Propylene glycol]
7.0 | CC(=O)OCC(COC(C)=O)OC(C)=O [Triacetin]

Compound | Dielectric constant
O [Water deionized, Water] | 79.2
